Tests used:
Caki-1 cells = experiment: Cancer cell death verification (MTT cell viability); format: cell-based
Procedure: (§2) 3×10^3 Brain cancer (U-87MG), lung cancer (H1975), pancreatic cancer (Aspc-1), liver cancer (Hep G2), breast cancer (MDA-MB-231), colon cancer (HCT116), kidney cancer (Caki-1), gastric cancer (SNU-1) and ovarian cancer (OVCAR-3) cells were cultured in a 96-well plate under conditions of 37° C. and 5% CO2 for 24 hours, and then each cancer cell was treated with ADP-ribose at each concentration. After culturing for 24 hours under conditions of 37° C. and 5% CO2 again, 10 μl of 3-(4,5-dimethylthiazol-2-yl)-2,5-diphenyltetrazolium bromide reagent was added to each well and reacted for 1 hour. After the reaction was completed, the reagent was removed, 200 μl of dimethyl sulfoxide was added to each well, and the absorbance was measured to determine the concentration of half-lethality and maximum lethality compared to untreated cells.
Then, 10 μl of 3-(4,5-dimethylthiazol-2-yl)-2,5-diphenyltetrazolium bromide reagent was added to each well and reacted for 1 hour. After the reaction was completed, the reagent was removed, 200 μl of dimethyl sulfoxide was added to each well, and the absorbance was measured to confirm cell viability.

U-87MG cells = experiment: Change over time in intracellular ADP-ribose, radiation versus ADP-ribose treatment (ELISA); format: cell-based; details: 8 μM ADP-ribose, even after 24 hours, after radiation back to untreated level at 24 hours
Procedure: (§1) Brain cancer (U-87MG), kidney cancer (Caki-1), pancreatic cancer (AsPC-1), or breast cancer (MDA-MB-231) cells were cultured in a 6-well plate, respectively, and the cells were divided into the untreated group, the radiation-treated group, and the ADP-ribose-treated group. Irradiation was performed using an X-Rad 320 irradiator (Precision X-ray, North Branford, CT, USA), and cancer cells were treated with a total of 1, 2, and 5 Gy at a dose rate of 300 kVp and 150 cGy/min using an X-ray beam filter composed of 12.5 mA and 2.0 mm Al, respectively. Before treatment and at 4, 8, 16, and 24 hours after treatment, the medium was removed, the cells were washed with phosphate-buffered saline, and then RIPA buffer was added and the products were left on ice for 20 minutes. After scraping the cells, the cells were put in a centrifuge tube and centrifuged for 10 minutes at 10,000 g and 4° C. The supernatant was obtained, and 1% SDS was added, and then the reaction product was boiled at 100° C. for 5 minutes and cooled on ice. The supernatant was centrifuged again at 10,000 g and 4° C. for 10 minutes to obtain the final supernatant, and ADP-ribose was quantitatively analyzed using an ELISA analysis kit (Cell Biolabs, Inc., San Diego, CA, USA). […]

[1] = system: Pancreatic cancer (AsPC-1) cells; details: AsPC-1 xenograft
Procedure: Brain (U-87MG), lung (H1975), pancreatic (AsPC-1), or liver (Hep G2) cells (1×10^7 cells) were inoculated into 5-week-old BALB/c nude mice on the back flank, respectively. Then, when tumors were grown to a volume of approximately 150 mm^3, the mice were divided into the control group (control), an anti-cancer drug alone treatment group, and a combination treatment group. […] The tumor size was measured every 6 days using a digital caliper, and the results of changes in tumor volume were compared by the group.
The tumor size was measured using a digital caliper, and the results of changes in tumor volume were compared by the group.

[2] = system: Liver cancer (Hep G2) cells; experiment: Cell death by combination treatment with anti-cancer drug (MTT); details: Homo sapiens, HepG2, 24 h, read-out: viability of cancer cells
Procedure: 3×10^3 Liver cancer (Hep G2) cells were cultured in a 96-well plate for 24 hours under conditions of 37° C. and 5% CO2, treated with ADP-ribose at a concentration of 1.6 μM and sorafenib at 1 μM, individually or in combination, and cultured for 24 hours under conditions of 37° C. and 5% CO2 again. Then, 10 μl of 3-(4,5-dimethylthiazol-2-yl)-2,5-diphenyltetrazolium bromide reagent was added to each well and reacted for 1 hour. After the reaction was completed, the reagent was removed, 200 μl of dimethyl sulfoxide was added to each well, and the absorbance was measured to confirm cell viability.

AsPC-1 cells = experiment: Cancer cell death verification (MTT cell viability); format: cell-based
Procedure: as §2
3×10^3 AsPC-1 cells were cultured in a 96-well plate for 24 hours under conditions of 37° C. and 5% CO2, treated with ADP-ribose at concentrations of 0.125, 0.25, 0.5, 1, 2, 4, 8, 16, and 32 μM, respectively, and cultured again for 24 hours under conditions of 37° C. and 5% CO2. Then, 10 μl of 3-(4,5-dimethylthiazol-2-yl)-2,5-diphenyltetrazolium bromide reagent was added to each well and reacted for 1 hour. After the reaction was completed, the reagent was removed, 200 μl of dimethyl sulfoxide was added to each well, and the absorbance was measured to confirm cell viability.

Hep G2 cells = experiment: as above; format: cell-based
Procedure: as §2
3×10^3 Hep G2 cells were cultured in a 96-well plate for 24 hours under conditions of 37° C. and 5% CO2, treated with ADP-ribose at concentrations of 0.125, 0.25, 0.5, 1, 2, 4, 8, 16, and 32 μM, respectively, and cultured again for 24 hours under conditions of 37° C. and 5% CO2. Then, 10 μl of 3-(4,5-dimethylthiazol-2-yl)-2,5-diphenyltetrazolium bromide reagent was added to each well and reacted for 1 hour. After the reaction was completed, the reagent was removed, 200 μl of dimethyl sulfoxide was added to each well, and the absorbance was measured to confirm cell viability.

MDA-MB-231 cells = experiment: Change over time in intracellular ADP-ribose, radiation versus ADP-ribose treatment (ELISA); format: cell-based; details: MDA-MB-231, 16 μM ADP-ribose, even after 24 hours; after radiation back to untreated level from 16 hours
Procedure: as §1

[3] = ADP-ribose 10 mg/kg s.c. in combination with gemcitabine 50 mg/kg, P<0.001

SMILES: Nc1ncnc2c1ncn2[C@@H]1O[C@H](COP(=O)(O)OP(=O)(O)OC[C@H]2O[C@@H](O)C(O)C2O)C(O)C1O (stereo partly drawn) [ADP-ribose, adenosine diphosphate ribose]
- maximum lethal dose (concentration at which almost all cells were killed) (Caki-1 cells; Caki-1, 24 hours, MTT): 32 µM
- cancer cell growth under a microscope (Caki-1 cells; Caki-1, ADP-ribose treated vs control, FIG. 8A): inhibited from growing and killed
- IC50 (Caki-1 cells; Homo sapiens, CAKI-1, 24 h, read-out: half-lethal dose (concentration at which about half of the cells were killed)): ~16 µM
- amount of ADP-ribose in the cells over time compared to the control group (U-87MG cells): maintained a significant (P<0.001) increase
- reduction of tumor volume compared to the control group [1, 3]: about 80%
- reduction of tumor volume compared to the group treated with gemcitabine alone [1, 3]: about 76%
- final tumor volume ([1]; ADP-ribose 10 mg/kg subcutaneous 3 times a week in combination with gemcitabine 50 mg/kg, control about 2174.3): about 444.3 mm^3
- viability at 1.6 µM [2]: ~0.9%
- maximum lethal dose (concentration at which almost all cells were killed) (AsPC-1 cells; AsPC-1, 24 hours, MTT): 32 µM
- cancer cell growth under a microscope (AsPC-1 cells; AsPC-1, ADP-ribose treated vs control, FIG. 4A): inhibited from growing and killed
- IC50 (AsPC-1 cells; Homo sapiens, ASPC1, 24 h, read-out: half-lethal dose (concentration at which about half of the cells were killed)): ~2000 nM
- maximum lethal dose (concentration at which almost all cells were killed) (Hep G2 cells; Hep G2, 24 hours, MTT): 32 µM
- cancer cell growth under a microscope (Hep G2 cells; Hep G2, ADP-ribose treated vs control, FIG. 5A): inhibited from growing and killed
- IC50 (Hep G2 cells; Homo sapiens, HepG2, 24 h, read-out: half-lethal dose (concentration at which about half of the cells were killed)): ~4 µM
- amount of ADP-ribose in the cells over time compared to the control group (MDA-MB-231 cells): maintained a significant (P<0.001) increase

Source: patent publication US20230372382A1, “USE OF ADENOSINE DIPHOSPHATE RIBOSE FOR ADJUVANT THERAPY WITH RADIATION AND/OR ANTI-CANCER TREATMENT” (PearlsInMires Co., Ltd., priority 2021, published 2023)
